{
  "source": "patent US10729643B2",
  "about": "“Methods for administration and methods for treating cardiovascular diseases with resiniferatoxin” (priority 2013, dated 2020)",
  "type_in_all_cases": "in vivo, rat",
  "key": {"[1]": {"tested_on": "post MI rats", "assay": "Long-term survival of post MI rats", "description": "This example illustrates effects of RTX on the long-term survival rate of post MI rats. […] Over a 6 month period over 50% of vehicle—treated rats died. This contrasts with under 20% of RTX treated—rats."}, "[2]": {"tested_on": "myocardium of sham and CHF rats", "assay": "Cardiac apoptosis: TUNEL staining and cleaved caspase 3", "description": "This example illustrates the effects of RTX on cardiac fibrosis in sham and CHF rats. Considering that RTX-mediated reduction in LVEDP in CHF rats may be related to an improvement in cardiac compliance, we further evaluated cardiac fibrosis using picrosirus red staining and protein expression of two fibrotic markers (a smooth muscle actin and fibronectin) as well as their upstream activator, transforming growth factor (TGF) β receptor I in the non-infarcted LV and inter-ventricular septum (IVS) walls from sham and CHF rats treated with either vehicle or RTX. For histopathology, the rat heart was fixed in 10% phosphate buffered formalin, embedded in paraffin, and cut into 10 μm serial sections from apex to base. Picrosirius red staining was performed to detect myocardial fibrosis. Immunohistochemistry staining of cleaved caspase 3 (CC3) was also performed in paraffin sections from the same heart tissues which were used for picrosirius red staining experiments.\nThis example illustrates effects of RTX on cardiac apoptosis in sham and CHF rats. Cardiac remodeling includes hypertrophy, fibrosis and apoptosis. Based on the beneficial effects of RTX on cardiac hypertrophy and cardiac fibrosis in CHF rats, we further investigated the effect of RTX on cardiac apoptosis in sham and CHF rats. TUNEL staining was performed. Terminal deoxynucleotidyl transferase dUTP-mediated nick-end labeling (TUNEL) staining and analysis was performed to evaluate the effect of RTX on cardiac apoptosis. Representative photomicrographs are depicted in FIG. 6A."}, "[3]": {"tested_on": "sham and CHF rats (coronary artery ligation)", "assay": "Hemodynamic, morphological and echocardiographic measurements in sham and CHF rats", "details": "for DAP: diastolic arterial pressure; for HR: heart rate; for HW/BW: heart weight/body weight; for LVEDP: left ventricle end-diastolic pressure; for MAP: mean arterial pressure; for SAP: systolic arterial pressure; for WLW/BW: wet lung weight/body weight", "experimental": "In order to desensitize cardiac sympathetic afferents in rats, resiniferatoxin (RTX, 1 mg; Sigma Aldrich) was dissolved in 2 ml of ethanol and mixed with 18 ml of Tween in isotonic saline. RTX (50 μg/ml) was applied twice on the entire left and right ventricles with a swab just prior to coronary ligation. The dose of RTX was determined by preliminary experiments in which we found nearly complete ablation of TRPV1-expressing cardiac nerve endings on the surface of the rat heart for more than 10 weeks. Rat surgery was performed 9-11 weeks post-MI. Rats were anesthetized with urethane (800 mg/kg ip) and α-chloralose (40 mg/kg ip). Renal sympathetic nerve activity (RSNA) and cardiac sympathetic nerve activity (CSNA) were recorded for evaluating basal renal and cardiac sympathetic tone.\nMore specifically, we examined TRPV1 protein expression in cardiac nerve endings from vehicle and RTX-treated rats using immunofluorescence. Experiments were performed on male Sprague-Dawley rats weighing […]. In brief, terminal experiments were carried out 9-11 weeks after MI in rats treated with either RTX or vehicle. These experiments were approved by the Institutional Animal Care and Use Committee of the University of Nebraska Medical Center and carried out under the guidelines of the National Institutes of Health Guide for the Care and Use of Laboratory Animals. Heart failure was produced by coronary artery ligation as described in (Wang et al., J. Appl. Physiol. 2010; 108:1365-1375; and Wang et al. 2, Am. J. Physiol. Regul. Integr. Comp. Physiol. 2012; 320:R1260-R1270). Cardiac function in all experimental animals was measured 2 and 6 weeks after MI by echocardiography (VEVO 770, Visual Sonics, Inc.) as described in (Wang et al., J. Appl. Physiol. 2010; 108:1365-1375; Wang et al. 2, Am. J. Physiol. Regul. Integr. Comp. Physiol. 2012; 320:R1260-R1270; and Wang et al. 3, J. Physiol. 2010; 588:5033-5047).\nThis example illustrates an effect of RTX on body weight, organ weight, and hemodynamics in sham and CHF rats."}},
  "data": [
    {"smiles": "C=C(C)[C@]12C[C@@H](C)[C@@]34O[C@](Cc5ccccc5)(O[C@@H]1[C@@H]3C=C(COC(=O)Cc1ccc(O)c(OC)c1)C[C@]1(O)C(=O)C(C)=C[C@@H]41)O2", "note": "[RTX, resiniferatoxin]", "values": [
      {"measurement": "long-term (6 months) survival rates", "setting": "[1]; CHF rats, epicardial RTX 50 μg/ml at the time of coronary ligation", "result": "markedly improved"},
      {"measurement": "rats that died over a 6 month period", "setting": "[1]; RTX treated post MI rats (vehicle: over 50%)", "result": "under 20%"},
      {"measurement": "TUNEL-positive cells", "setting": "[2]; LV infarct, LV peri-infarct, LV remote and IVS regions, CHF+RTX vs CHF+vehicle", "result": "markedly reduced"},
      {"measurement": "increased cleaved caspase 3-positive cardiomyocytes", "setting": "[2]; LV peri-infarct, LV remote and IVS regions, CHF rats, immunohistochemistry", "result": "largely prevented"},
      {"measurement": "elevated protein expression of cleaved caspase 3", "setting": "[2]; LV remote and IVS regions, CHF rats", "result": "prevented"},
      {"measurement": "difference in number of TUNEL-positive cells in the heart", "setting": "[2]; sham+vehicle vs sham+RTX rats", "result": "no significant difference"},
      {"measurement": "difference in ejection fraction or fractional shortening", "setting": "[3]; 2 weeks and 6 weeks after MI, CHF+RTX vs CHF+vehicle", "result": "no significant difference"},
      {"measurement": "DAP", "setting": "[3]; CHF + RTX (n = 25), mean ± SE", "result": "90.8 ± 2.2", "unit": "mmHg"},
      {"measurement": "Heart weight", "setting": "[3]; CHF + RTX (n = 25), epicardial RTX 50 μg/ml at coronary ligation, 9-11 weeks post-MI, mean ± SE", "result": "1650 ± 49", "unit": "mg"},
      {"measurement": "HR", "setting": "[3]; CHF + RTX (n = 25), mean ± SE", "result": "348.3 ± 5.5", "unit": "bpm"},
      {"measurement": "HW/BW", "setting": "[3]; CHF + RTX (n = 25), mean ± SE", "result": "3.8 ± 0.1", "unit": "mg/g"},
      {"measurement": "LVEDP", "setting": "[3]; CHF + RTX (n = 25), mean ± SE", "result": "8.3 ± 0.7", "unit": "mmHg"},
      {"measurement": "MAP", "setting": "[3]; CHF + RTX (n = 25), mean ± SE", "result": "101.3 ± 2.1", "unit": "mmHg"},
      {"measurement": "Infarct size", "setting": "[3]; CHF + RTX (n = 25), mean ± SE", "result": "39.1 ± 1.2", "unit": "%"},
      {"measurement": "dp/dtmax", "setting": "[3]; CHF + RTX (n = 25), mean ± SE", "result": "5446 ± 173"},
      {"measurement": "dp/dtmin", "setting": "[3]; CHF + RTX (n = 25), mean ± SE", "result": "−4643 ± 149"},
      {"measurement": "SAP", "setting": "[3]; CHF + RTX (n = 25), mean ± SE", "result": "120.8 ± 2.3", "unit": "mmHg"},
      {"measurement": "WLW/BW", "setting": "[3]; CHF + RTX (n = 25), mean ± SE", "result": "5.1 ± 0.2", "unit": "mg/g"},
      {"measurement": "MI-induced cardiac dilation (LV systolic and diastolic diameters and volumes)", "setting": "[3]; CHF rats, echocardiography", "result": "significantly reduced"},
      {"measurement": "increased LVEDP observed in CHF+vehicle rats", "setting": "[3]; CHF+RTX rats", "result": "largely prevented"},
      {"measurement": "decreased protein expression of in myocardium", "setting": "[3]; CHF+RTX rats, western blot", "result": "partially reversed"},
      {"measurement": "blunted dp/dtmin", "setting": "[3]; CHF+RTX vs CHF+vehicle rats", "result": "significantly increased"},
      {"measurement": "difference in dp/dtmax at rest", "setting": "[3]; CHF+RTX vs CHF+vehicle rats", "result": "no significant difference"},
      {"measurement": "dp/dtmax response to isoproterenol (ISO) stimulation", "setting": "[3]; CHF+RTX vs CHF+vehicle rats", "result": "significantly greater"},
      {"measurement": "heart weight and lung weight-to-body weight ratios", "setting": "[3]; CHF+RTX vs CHF+vehicle rats", "result": "significant decrease"},
      {"measurement": "difference in infarct size", "setting": "[3]; CHF+vehicle vs CHF+RTX rats", "result": "no significant difference"},
      {"measurement": "ejection fraction decrease", "setting": "[3]; RTX treated rats (summary)", "result": "less"},
      {"measurement": "Infarct size", "setting": "[3]; Sham + RTX (n = 20)", "result": 0, "unit": "%"},
      {"measurement": "DAP", "setting": "[3]; Sham + RTX (n = 20), mean ± SE", "result": "92.8 ± 3.2", "unit": "mmHg"},
      {"measurement": "Heart weight", "setting": "[3]; Sham + RTX (n = 20), epicardial RTX 50 μg/ml, 9-11 weeks, mean ± SE", "result": "1430 ± 30", "unit": "mg"},
      {"measurement": "HR", "setting": "[3]; Sham + RTX (n = 20), mean ± SE", "result": "362.0 ± 6.8", "unit": "bpm"},
      {"measurement": "HW/BW", "setting": "[3]; Sham + RTX (n = 20), mean ± SE", "result": "3.3 ± 0.1", "unit": "mg/g"},
      {"measurement": "LVEDP", "setting": "[3]; Sham + RTX (n = 20), mean ± SE", "result": "4.8 ± 0.4", "unit": "mmHg"},
      {"measurement": "MAP", "setting": "[3]; Sham + RTX (n = 20), mean ± SE", "result": "105.0 ± 3.1", "unit": "mmHg"},
      {"measurement": "dp/dtmax", "setting": "[3]; Sham + RTX (n = 20), mean ± SE", "result": "8601 ± 224"},
      {"measurement": "dp/dtmin", "setting": "[3]; Sham + RTX (n = 20), mean ± SE", "result": "−8088 ± 196"},
      {"measurement": "SAP", "setting": "[3]; Sham + RTX (n = 20), mean ± SE", "result": "128.8 ± 2.8", "unit": "mmHg"},
      {"measurement": "WLW/BW", "setting": "[3]; Sham + RTX (n = 20), mean ± SE", "result": "4.5 ± 0.1", "unit": "mg/g"},
      {"measurement": "differences in cardiac morphological, echocardiographic or hemodynamic parameters", "setting": "[3]; sham+vehicle vs sham+RTX rats", "result": "no significant differences"}
    ]}
  ]
}
